# Experiments:
# [1] = essential tremor, cited from earlier work
# [2] = target: T1, human alpha4,beta3,delta GABAA receptor (Homo sapiens, UniProt P28472+P48169); experiment: Patch-clamp (Dynaflow) current response in HEK-293 cells expressing the human alpha4,beta3,delta GABAA receptor; format: cell-based
# T1 construct: expressed in transfected cells
# Protocol: (§1) Assay for testing GABAA receptor effects of 3beta-hydroxy-5alpha-pregnan-20-one on human alpha1,beta,gamma and alpha4,beta,delta GABAA receptor subtype.
# (§2) In these tests the protocol was optimized to be similar to the physiological conditions in the synaptic cleft.
# (§3) Cell culture: HEK-293 cells, permanently transfected with the human alpha1,beta,gamma and alpha4,beta,delta GABAA receptor subtypes, were seeded at a density of 3×10^4/25 cm^2 in cellbind culture flask. The transfected cells were used for patch-clamp experiments 3 days after seeding. When using the cells for patch-clamp experiments the cells were washed twice with oxygen-bubbled extracellular (EC) solution (see below). About 5 mL EC was then added and the cells were kept in the incubator for about 15 minutes. After 15 minutes the cells came loose from the bottom of the flask and were separated by carefully sucking couple of times with a Pasteur pipette.
# (§4) DYNAFLOW™ system with Resolve chip was used for patch-clamp experiments: The electrophysiological recordings from HEK-293 cells were performed under voltage-clamp conditions using patch-clamp technique and the DYNAFLOW™ system (DYNAFLOW™ Pro II Platform Zeiss Axiovert 25; Cellectricon AB, Sweden) with Resolve chips as application system.
# (§5) Patch pipettes were pulled from borosilicate glass and polished to a resistance 2-5 MΩ when filled with suitable intracellular solution (IC) (pH was adjusted to 7.2) and immersed in bath solution (extracellular, EC) (pH is adjusted to 7.4). The recordings were made using an Axopatch 200B amplifier, a Digidata 1322A (Axon instruments, Foster city, USA). Data were acquired using the pCLAMP software sampled at 10 kHz, filtered at 2-10 kHz and analyzed with Clampfit (versions 9.0, both from Axon instruments, Foster city, USA). No higher series resistance than 20 MΩ between pipette and cell membrane was accepted. No series resistance compensation was used. The stability of series resistance was monitored repeatedly from the time course of capacitative transients during the experiments. The measured liquid-junction potential between EC and IC was subtracted in all data presented. An experiments were performed at room temperature (21-23° C.).
# (§6) All steroids were dissolved to the concentration of 6 mM in DMSO. […] End solutions were the solutions added into the wells of the chip.
# (§7) Electrophysiology: After compensating for the liquid junction potential a steady holding potential of −17 mV was used in all experiments. […] By using the holding potential of −17 mV and the intracellular solution with low chloride ion concentration the chloride ions flux into the cell when the receptors were activated.
# The DYNAFLOW™ system allowed application of solutions for as short as 40 ms up to minutes in time. […] Therefore, the first GABA application was always repeated twice and the second response was used in the analysis.
# Washout: GABA is quite soluble in water and easy to washout from the receptor. […] Steroids on the other hand were difficult to dissolve in water and also difficult to washout from the receptor. In the experiments, THDOC and 3alpha-OH-adiol were used as the positive GABAA receptor modulating steroids. With 2 minutes washout time, 200 nM THDOC and 3alpha-OH-adiol was completely washed out as shown by neither an accumulative nor a desensitization effect.
# (§8) Different incubation times were studied to achieve the optimal time for attain stable results and minimize the washout time.
# (§9) Biological evaluation—HEK-293 cells, permanently transfected with human alpha1,beta,gamma and alpha4,beta,delta GABAA receptor subtypes and expressing these GABAA receptors.
# Cell lines permanently expressing a functional human GABAA receptor was made in following steps. The GABAA receptor subunits alpha1,beta2,gamma2L or alpha4,beta3,delta including introduced Kozac sequences just before the start codons were subcloned into mammalian expression vectors containing Geneticin, Hygromycin B, and Zeocin resistance, respectively. […]
# [3] = target: T2, human alpha1,beta2,gamma2 GABAA receptor (Homo sapiens, UniProt P14867+P47870); experiment: Patch-clamp (Dynaflow) current response in HEK-293 cells expressing the human alpha1,beta2,gamma2 GABAA receptor; format: cell-based; details: for Androstandiol effect by itself (baseline shift), current response in absence of GABA: no GABA; for Antagonism of THDOC enhanced GABA effect, single dose: 1 μM UC1010 + 30 μM GABA + 200 nM THDOC; for Imax, maximal antagonism of THDOC effect in concentration-dependent experiment: 0.1-1 μM UC1010 + 30 μM GABA + 200 nM THDOC, max reached at 1 μM
# T2 construct: expressed in transfected cells
# T2 sequence (P14867 28-456): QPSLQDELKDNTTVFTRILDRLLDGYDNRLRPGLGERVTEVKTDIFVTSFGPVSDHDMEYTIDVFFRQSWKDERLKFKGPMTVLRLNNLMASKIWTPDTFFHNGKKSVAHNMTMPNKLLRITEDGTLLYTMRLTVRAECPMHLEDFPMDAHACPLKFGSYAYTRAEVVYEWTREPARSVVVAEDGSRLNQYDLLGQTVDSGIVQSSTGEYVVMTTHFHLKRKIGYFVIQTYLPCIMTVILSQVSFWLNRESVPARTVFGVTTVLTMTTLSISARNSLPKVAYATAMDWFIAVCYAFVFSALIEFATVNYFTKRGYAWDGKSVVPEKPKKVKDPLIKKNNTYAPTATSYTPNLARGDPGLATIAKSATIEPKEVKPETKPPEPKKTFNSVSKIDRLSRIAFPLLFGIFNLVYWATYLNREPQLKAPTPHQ
# T2 sequence (P47870 26-512): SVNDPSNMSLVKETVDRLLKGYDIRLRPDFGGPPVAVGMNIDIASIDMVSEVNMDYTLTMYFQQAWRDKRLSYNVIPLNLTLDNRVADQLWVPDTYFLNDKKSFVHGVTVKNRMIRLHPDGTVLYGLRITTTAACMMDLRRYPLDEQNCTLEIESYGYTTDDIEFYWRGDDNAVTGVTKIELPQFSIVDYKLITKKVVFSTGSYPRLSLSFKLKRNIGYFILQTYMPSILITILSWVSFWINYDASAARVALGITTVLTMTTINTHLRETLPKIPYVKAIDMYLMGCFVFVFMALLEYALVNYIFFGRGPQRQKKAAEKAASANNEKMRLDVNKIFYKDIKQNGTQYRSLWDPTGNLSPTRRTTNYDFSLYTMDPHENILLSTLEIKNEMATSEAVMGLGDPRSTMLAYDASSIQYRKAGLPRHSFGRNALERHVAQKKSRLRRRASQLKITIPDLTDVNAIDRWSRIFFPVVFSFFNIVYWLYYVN
# T2 sequence (P18507 40-475 partner): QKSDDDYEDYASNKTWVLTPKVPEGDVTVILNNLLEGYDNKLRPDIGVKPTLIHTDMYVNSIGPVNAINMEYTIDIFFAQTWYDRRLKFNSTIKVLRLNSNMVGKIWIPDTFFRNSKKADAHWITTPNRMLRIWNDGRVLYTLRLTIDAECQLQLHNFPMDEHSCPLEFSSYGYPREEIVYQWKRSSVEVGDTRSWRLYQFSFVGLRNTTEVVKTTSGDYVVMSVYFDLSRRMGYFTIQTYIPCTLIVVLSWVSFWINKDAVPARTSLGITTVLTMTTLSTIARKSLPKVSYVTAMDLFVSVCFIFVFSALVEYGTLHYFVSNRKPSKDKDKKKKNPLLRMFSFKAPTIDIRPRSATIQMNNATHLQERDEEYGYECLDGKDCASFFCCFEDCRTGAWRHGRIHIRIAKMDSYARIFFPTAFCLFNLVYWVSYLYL
# Protocol: as §1, §2, §3, §4, §5, §6, §7
# The DYNAFLOW™ system allowed application of solutions for as short as 40 ms up to minutes in time.
# In the experiments, THDOC and 3alpha-OH-adiol were used as the positive GABAA receptor modulating steroids.
# as §8, §9
# Cell lines permanently expressing a functional human GABAA receptor was made in following steps. The GABAA receptor subunits alpha1,beta2,gamma2L or alpha4,beta3,delta including introduced Kozac sequences just before the start codons were subcloned into mammalian expression vectors containing Geneticin, Hygromycin B, and Zeocin resistance, respectively. A HEK-293 cell line stably expressing the three GABAA receptor subunits was produced by transfection of the subunits one at a time.
# [4] = HEK293, read-out: Emax, androstandiol enhancement of GABA mediated current
# [5] = listed as 3beta-hydroxy-5alpha-pregnan-20-one
# T1 sequence (P48169 36-554): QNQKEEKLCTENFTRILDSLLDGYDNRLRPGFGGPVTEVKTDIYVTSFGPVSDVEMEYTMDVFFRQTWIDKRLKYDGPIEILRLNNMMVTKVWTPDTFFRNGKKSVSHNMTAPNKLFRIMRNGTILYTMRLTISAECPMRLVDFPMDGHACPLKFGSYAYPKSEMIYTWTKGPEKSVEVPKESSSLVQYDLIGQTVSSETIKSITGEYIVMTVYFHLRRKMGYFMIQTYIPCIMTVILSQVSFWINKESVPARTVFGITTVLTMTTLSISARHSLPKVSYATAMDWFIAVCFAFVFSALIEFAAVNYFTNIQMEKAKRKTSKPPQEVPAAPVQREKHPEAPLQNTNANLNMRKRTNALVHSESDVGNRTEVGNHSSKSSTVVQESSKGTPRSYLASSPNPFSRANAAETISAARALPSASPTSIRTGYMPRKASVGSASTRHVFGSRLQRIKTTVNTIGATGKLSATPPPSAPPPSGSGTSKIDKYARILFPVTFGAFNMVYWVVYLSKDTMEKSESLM
# T1 sequence (P28472 26-473): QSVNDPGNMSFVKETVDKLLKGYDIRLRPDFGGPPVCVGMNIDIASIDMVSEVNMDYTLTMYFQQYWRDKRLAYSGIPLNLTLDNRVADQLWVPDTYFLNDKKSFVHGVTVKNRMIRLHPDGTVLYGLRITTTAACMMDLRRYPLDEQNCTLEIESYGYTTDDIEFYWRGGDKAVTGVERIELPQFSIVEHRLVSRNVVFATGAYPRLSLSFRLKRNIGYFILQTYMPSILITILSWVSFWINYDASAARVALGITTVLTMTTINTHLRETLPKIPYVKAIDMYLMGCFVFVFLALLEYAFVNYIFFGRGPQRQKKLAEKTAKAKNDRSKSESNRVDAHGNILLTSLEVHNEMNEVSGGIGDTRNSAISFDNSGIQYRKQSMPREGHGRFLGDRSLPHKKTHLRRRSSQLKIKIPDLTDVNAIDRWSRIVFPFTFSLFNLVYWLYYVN
# T1 sequence (O14764 17-452 partner limits assumed): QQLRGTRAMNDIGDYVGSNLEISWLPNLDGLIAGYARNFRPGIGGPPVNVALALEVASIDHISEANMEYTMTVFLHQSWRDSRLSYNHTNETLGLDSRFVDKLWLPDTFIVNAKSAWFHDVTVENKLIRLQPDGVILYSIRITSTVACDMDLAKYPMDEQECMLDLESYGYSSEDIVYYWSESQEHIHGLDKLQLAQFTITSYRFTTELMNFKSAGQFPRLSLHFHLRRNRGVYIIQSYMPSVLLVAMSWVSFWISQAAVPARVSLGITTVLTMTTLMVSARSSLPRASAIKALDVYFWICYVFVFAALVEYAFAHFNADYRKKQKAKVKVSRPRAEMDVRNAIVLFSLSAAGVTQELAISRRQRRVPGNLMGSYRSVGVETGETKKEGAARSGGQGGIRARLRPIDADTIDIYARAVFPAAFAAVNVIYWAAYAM
compound,measurement,setting,value
CCO [Alcohol],Reduction in tremor scores,[1]; only during a short period (30 minutes) with a rebound later,50%
"C[C@]12CC[C@@H](O)C[C@@H]1CC[C@@H]1[C@@H]2CC[C@]2(C)C(O)CC[C@@H]12 (stereo partly drawn) [Androstandiol, 3alpha-hydroxy-5alpha-androstan-17-ol]","Potency at alpha4,beta3,delta relative to alpha1,beta2,gamma2 (higher)",[2]; 0.38 μM vs. 3.4 μM,10 times
same,"Androstandiol baseline shift, current response in absence of GABA","[2]; 3 μM androstandiol, no GABA, Mean ± SEM",+8 ± 3.6 pA
same,"Androstandiol baseline shift, current response in absence of GABA","[2]; 10 μM androstandiol, no GABA, Mean ± SEM",+13 ± 4.8 pA
same,Emax,[2]; [4],142%
same,"Androstandiol effect by itself (baseline shift), current response in absence of GABA","[3]; 3 μM androstandiol, Mean ± SEM",+8 ± 3.6 pA
same,"Androstandiol effect by itself (baseline shift), current response in absence of GABA","[3]; 8 μM androstandiol, Mean ± SEM",+13 ± 2.3 pA
same,"Androstandiol effect by itself (baseline shift), current response in absence of GABA","[3]; 10 μM androstandiol, Mean ± SEM",+11 ± 1.5 pA
same,"Androstandiol effect by itself (baseline shift), current response in absence of GABA","[3]; 30 μM androstandiol, Mean ± SEM",+24 ± 6.8 pA
same,"Androstandiol effect by itself (baseline shift), current response in absence of GABA","[3]; 100 μM androstandiol, Mean ± SEM",+43 ± 5.7 pA
same,Emax,[3]; [4],281%
same,Potency relative to THDOC in enhancing the effect of GABA (less potent),[3]; androstandiol vs THDOC,48 times
"CCC1(c2ccccc2)C(=O)NCNC1=O [Primidone, primidone]",Reduction of tremor scores,[1],35-50%
"C[C@]12CC[C@@H](O)C[C@H]1CC[C@@H]1[C@@H]2CC[C@]2(C)[C@@H](C(=O)CO)CC[C@@H]12 [THDOC, Tetrahydrodeoxycorticosterone]","THDOC baseline shift, current response in absence of GABA","[2]; 0.03 μM THDOC, no GABA, Mean ± SEM",+5 ± 3.3 pA
same,"THDOC baseline shift, current response in absence of GABA","[2]; 0.1 μM THDOC, no GABA, Mean ± SEM",+15 ± 9.5 pA
same,"THDOC baseline shift, current response in absence of GABA","[2]; 0.3 μM THDOC, no GABA, Mean ± SEM",+12 ± 7.9 pA
same,"THDOC baseline shift, current response in absence of GABA","[2]; 1 μM THDOC, no GABA, Mean ± SEM",+69 ± 35 pA
same,"Emax, THDOC enhancement of GABA mediated current",[2]; 3 μM GABA,297%
same,EC50,"[2]; read-out: EC50, THDOC enhancement of GABA mediated current, 3 μM GABA",47 nM
same,"Imax/Emax, THDOC enhancement of GABA mediated current","[3]; 0.03-1 μM THDOC + 30 μM GABA, control 30 μM GABA set to 0",+115%
"CC(=O)[C@H]1CC[C@H]2[C@@H]3CC[C@H]4C[C@@H](O)CC[C@]4(C)[C@H]3CC[C@]12C [UC1010, 3beta-hydroxy-5alpha-pregnan-20-one]",Effect of 1 μM UC1010 on 3 μM GABA response,"[2]; 1 μM UC1010, 3 μM GABA, Mean ± SEM, N=11, NS",−6.7 ± 3.3%
same,Effect of 1 μM UC1010 on 0.6 μM Androstandiol + 3 μM GABA,"[2]; 1 μM UC1010, Mean ± SEM",−18 ± 2.0%
same,Effect of 1 μM UC1010 on 0.8 μM Androstandiol + 3 μM GABA,"[2]; 1 μM UC1010, Mean ± SEM",−22 ± 2.6%
same,Effect of 1 μM UC1010 on 0.1 μM THDOC alone baseline,"[2]; 1 μM UC1010, THDOC induced baseline shift without GABA, Mean ± SEM",−43 ± 3.5%
same,"Effect of UC1010 on GABA-mediated current response, GABA alone (in words)","[2]; 1 μM UC1010, data not shown",without any significant effect
same,Effect of 1 μM UC1010 on 0.1 μM THDOC + 3 μM GABA,"[2]; 1 μM UC1010, steady state, Mean ± SEM",−26 ± 2.4%
same,"Effect of the compound by itself, current response","[2]; 1 μM, no GABA, no THDOC, N=11, NS vs EC solution",−0.4±0.3 pA
same,"Antagonism of THDOC enhanced GABA effect, single dose",[3],−21 ± 4.6%
same,"Antagonism of THDOC enhanced GABA effect, single dose",[3]; [5],−22.3±5.3%
same,Modulatory effect of UC1010 on GABA response,"[3]; 1 μM UC1010 + 30 μM GABA, vs GABA alone, NS, n=9",10.3±7.8%
same,Effect of 1 μM UC1010 on 8 μM Androstandiol + 30 μM GABA,"[3]; 1 μM UC1010, steady state (phasic effect), Mean ± SEM",−30 ± 1.7%
same,"Effect of 1 μM UC1010 on 8 μM Androstandiol, baseline shift","[3]; 1 μM UC1010, tonic effect without GABA, Mean ± SEM",−33 ± 7.6%
same,"Imax, maximal antagonism of THDOC effect in concentration-dependent experiment",[3],−21%
same,"Imax, maximal antagonism of THDOC effect in concentration-dependent experiment",[3]; [5],−21±4.6%
Cc1nnc2n1-c1ccc(Cl)cc1C(c1ccccc1)=NC2 [alprazolam],Reduction of tremor scores,[1],25%
